Results from BindingDB's records for doi:10.1016/s0960-894x(02)00084-7 (The University of Tokyo, 2002).

How the values were obtained:
[1] = Inhibitory activity (RA1) against Prostaglandin G/H synthase 1 was calculated relative to aspirin
[2] = Inhibitory activity (RA2) against Prostaglandin G/H synthase 2 was calculated relative to aspirin

SMILES | relative activity vs aspirin [1] | relative activity vs aspirin [2]
Cc1cc(C)c(C)c(N2C(=O)c3ccccc3C2=O)c1C [2-(2,3,5,6-Tetramethyl-phenyl)-isoindole-1,3-dione] | 0.2 | 0.67
Cc1cc(C)c(C)c(N2C(=O)c3ccccc3C2=O)c1 [2-(2,3,5-Trimethyl-phenyl)-isoindole-1,3-dione] | 0.33 | 1.18
O=C1CCN(N2C(=O)c3ccccc3C2=O)C(=O)N1 [2-(2,4-Dioxo-tetrahydro-pyrimidin-1-yl)-isoindole-1,3-dione] | 0.6 | 0.9
O=C1NCCCC1N1C(=O)c2ccccc2C1=O (centres undefined) [2-(2-Oxo-piperidin-3-yl)-isoindole-1,3-dione] | 0.85 | 1.21
Cc1cc(C)cc(-n2c(O)cc3ccccc3c2=O)c1 [2-(3,5-Dimethyl-phenyl)-4H-isoquinoline-1,3-dione] | 95.2 | 38.5
Cc1cc(C)cc(N2C(=O)c3ccccc3C2=O)c1 [2-(3,5-Dimethyl-phenyl)-isoindole-1,3-dione] | 7.4 | 13.2
COc1cc(OC)nc(-n2c(O)cc3ccccc3c2=O)n1 [2-(4,6-Dimethoxy-pyrimidin-2-yl)-4H-isoquinoline-1,3-dione] | 10.2 | 3.57
Cc1cc(C)nc(-n2c(O)cc3ccccc3c2=O)c1 [2-(4,6-Dimethyl-pyridin-2-yl)-4H-isoquinoline-1,3-dione] | 12.5 | 6.67
Cc1cc(C)nc(-n2c(O)cc3ccccc3c2=O)n1 [2-(4,6-Dimethyl-pyrimidin-2-yl)-4H-isoquinoline-1,3-dione] | 3.85 | 8.33
COc1cc(C)nc(-n2c(O)cc3ccccc3c2=O)n1 [2-(4-Methoxy-6-methyl-pyrimidin-2-yl)-4H-isoquinoline-1,3-dione] | 21.7 | 10
O=C1c2ccccc2C(=O)N1CCn1ccc(=O)[nH]c1=O [2-[2-(2,4-Dioxo-3,4-dihydro-2H-pyrimidin-1-yl)-ethyl]-isoindole-1,3-dione] | 1.23 | 0.65

Next, values leading:

relative activity vs aspirin [1] | relative activity vs aspirin [2] | SMILES
0.37 | 0.5 | O=C1CCC(N2C(=O)c3ccccc3C2=O)C(=O)N1 (racemic) [(+/-)-thalidomide]
0.44 | 3.81 | O=C1c2ccccc2C(=O)N1c1c[nH]c(=O)[nH]c1=O [2-(2,4-Dioxo-1,2,3,4-tetrahydro-pyrimidin-5-yl)-isoindole-1,3-dione]
0.4 | 0.1 | C[C@@]1(N2C(=O)c3cccc([N+](=O)[O-])c3C2=O)CCC(=O)NC1=O [2-((R)-3-Methyl-2,6-dioxo-piperidin-3-yl)-4-nitro-isoindole-1,3-dione]
0.54 | 1.51 | C[C@@]1(N2C(=O)c3ccc([N+](=O)[O-])cc3C2=O)CCC(=O)NC1=O [2-((R)-3-Methyl-2,6-dioxo-piperidin-3-yl)-5-nitro-isoindole-1,3-dione]
0.29 | 0.73 | C[C@@]1(N2C(=O)c3ccccc3C2=O)CCC(=O)NC1=O [2-((R)-3-Methyl-2,6-dioxo-piperidin-3-yl)-isoindole-1,3-dione]
0.17 |  | C[C@@]1(N2C(=O)c3cccc(N)c3C2=O)CCC(=O)NC1=O [4-Amino-2-((R)-3-methyl-2,6-dioxo-piperidin-3-yl)-isoindole-1,3-dione]
0.12 |  | C[C@@]1(N2C(=O)c3ccc(N)cc3C2=O)CCC(=O)NC1=O [5-Amino-2-((R)-3-methyl-2,6-dioxo-piperidin-3-yl)-isoindole-1,3-dione]
